Measurements from patent publication US20240391936A1, “TETRAHYDROTHIENO PYRIDINE DERIVATIVES AS DDRS INHIBITORS” (CHIESI FARMACEUTICI S.P.A., priority 2021, published 2024).

Columns and labels:
[1] = biological target: T1, DDR2 (Homo sapiens, UniProt Q16832); assay: DDR2 cell based assay (phospho-ELISA in HEK293T-DDR2 recombinant cells); set-up: expressed in transfected cells; host or cells: HEK293T-DDR2 recombinant cells; conditions: bovine Type II Collagen 50 μg/ml
T1 sequence (Q16832 22-855): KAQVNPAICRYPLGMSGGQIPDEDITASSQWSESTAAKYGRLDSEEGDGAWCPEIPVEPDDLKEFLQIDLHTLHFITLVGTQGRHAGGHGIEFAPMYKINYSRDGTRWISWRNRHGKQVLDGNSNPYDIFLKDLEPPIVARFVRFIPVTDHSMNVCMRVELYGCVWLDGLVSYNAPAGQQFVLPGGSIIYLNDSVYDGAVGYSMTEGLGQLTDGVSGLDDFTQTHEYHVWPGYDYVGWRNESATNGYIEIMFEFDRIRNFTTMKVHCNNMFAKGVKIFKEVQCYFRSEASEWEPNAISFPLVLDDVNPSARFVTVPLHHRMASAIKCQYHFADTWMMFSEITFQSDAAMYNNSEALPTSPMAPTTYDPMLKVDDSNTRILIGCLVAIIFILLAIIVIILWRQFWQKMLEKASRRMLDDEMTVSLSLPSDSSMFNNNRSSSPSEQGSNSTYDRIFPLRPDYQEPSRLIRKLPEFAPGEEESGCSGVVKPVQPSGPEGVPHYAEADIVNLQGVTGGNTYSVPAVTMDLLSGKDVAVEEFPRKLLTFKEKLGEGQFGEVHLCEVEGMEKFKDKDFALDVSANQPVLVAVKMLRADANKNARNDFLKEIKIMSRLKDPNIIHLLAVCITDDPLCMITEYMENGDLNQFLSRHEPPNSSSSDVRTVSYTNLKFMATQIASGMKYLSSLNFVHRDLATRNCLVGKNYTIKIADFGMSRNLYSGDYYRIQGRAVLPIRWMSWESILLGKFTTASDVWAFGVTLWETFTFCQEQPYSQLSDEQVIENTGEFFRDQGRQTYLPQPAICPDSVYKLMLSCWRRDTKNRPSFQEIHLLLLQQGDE
Procedure, shortened: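 HEK293T-DDR2 cells, serum-starved 3 h, treated with compounds 30 min before 3 h stimulation with bovine type II collagen at 50 μg/ml. Lysate phospho-DDR2 measured by ELISA, normalized to maximal-inhibition and collagen II (20 μg/ml) controls; IC50 from variable-slope sigmoidal fit.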

[2] = biological target: T2, DDR1 (Homo sapiens, UniProt Q08345); assay: DDR1 binding assay (LanthaScreen Europium Kinase Binding assay); set-up: purchased Carna Biosciences; conditions: binding assay, 5 nM DDR1, 20 nM Kinase Tracer 178; Ki from IC50 by Cheng-Prusoff; read-out: Ki DDR1
Procedure, shortened: (§1)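 Compounds incubated 1 h at room temperature with 5 nM kinase, Kinase Tracer 178 (20 nM for DDR1, 10 nM for DDR2) and 2 nM Eu-anti-GST antibody in pH 7.5 HEPES/MgCl2/EGTA/BRIJ35 buffer. TR-FRET 665/615 nm ratio read after 340 nm excitation; IC50 from 4-parameter fit, converted to Ki by Cheng-Prusoff.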

[3] = biological target: T2, DDR1; assay: DDR1 cell based assay (PathHunter U2OS DDR1 assay); set-up: host or cells: U2OS-DDR1 (PathHunter); conditions: U2OS-DDR1 cells, bovine Type II Collagen 20 μg/ml
Procedure, shortened: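 U2OS-DDR1 PathHunter cells preincubated 30 min with compound, then stimulated overnight at 37 °C with 20 μg/ml bovine type II collagen. Luminescent complementation signal read after 1 h detection at room temperature; normalized to vehicle (0%) and collagen-only (100%) controls, IC50 from variable-slope sigmoidal fit.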

[4] = biological target: T1, DDR2; assay: DDR2 binding assay (LanthaScreen Europium Kinase Binding assay); set-up: purchased Life Technologies; conditions: binding assay, 5 nM DDR2, 10 nM Kinase Tracer 178; Ki from IC50 by Cheng-Prusoff; read-out: Ki DDR2
Procedure, shortened: as §1

T2 sequence (Q08345 19-913): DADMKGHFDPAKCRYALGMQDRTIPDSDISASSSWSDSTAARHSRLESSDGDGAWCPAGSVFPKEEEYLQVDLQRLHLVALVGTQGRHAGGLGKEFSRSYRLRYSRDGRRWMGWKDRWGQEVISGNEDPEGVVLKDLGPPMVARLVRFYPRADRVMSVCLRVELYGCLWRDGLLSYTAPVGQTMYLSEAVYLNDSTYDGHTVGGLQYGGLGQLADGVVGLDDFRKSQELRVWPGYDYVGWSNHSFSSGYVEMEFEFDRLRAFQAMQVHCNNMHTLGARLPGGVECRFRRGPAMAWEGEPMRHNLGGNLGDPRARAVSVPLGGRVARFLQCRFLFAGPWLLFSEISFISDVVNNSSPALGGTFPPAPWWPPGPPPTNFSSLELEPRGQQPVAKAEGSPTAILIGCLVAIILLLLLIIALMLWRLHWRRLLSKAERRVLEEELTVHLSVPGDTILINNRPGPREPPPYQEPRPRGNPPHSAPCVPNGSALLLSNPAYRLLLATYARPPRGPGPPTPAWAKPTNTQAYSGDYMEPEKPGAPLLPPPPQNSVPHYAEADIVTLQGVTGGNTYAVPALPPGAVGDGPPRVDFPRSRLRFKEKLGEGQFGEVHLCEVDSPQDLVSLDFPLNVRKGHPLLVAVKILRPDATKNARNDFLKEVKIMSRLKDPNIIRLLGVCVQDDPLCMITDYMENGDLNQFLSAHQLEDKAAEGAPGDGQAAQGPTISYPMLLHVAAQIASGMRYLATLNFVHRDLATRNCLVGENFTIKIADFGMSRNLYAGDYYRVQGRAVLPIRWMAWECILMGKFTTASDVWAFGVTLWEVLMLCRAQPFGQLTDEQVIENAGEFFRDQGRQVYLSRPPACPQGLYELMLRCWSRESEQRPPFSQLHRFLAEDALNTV

IC50 [1]: 25 to 50 nM
Ki [2]: < 25 nM
IC50 [3]: < 25 nM
Ki [4]: < 25 nM
Compound: N#Cc1cc(NC(=O)c2csc3c2CCN(C(=O)c2cnn4ccncc24)C3)cc(C(F)(F)F)c1 [Example 184, N-(3-cyano-5-(trifluoromethyl)phenyl)-6-(pyrazolo[1,5-a]pyrazine-3-carbonyl)-4,5,6,7-tetrahydrothieno[2,3-c]pyridine-3-carboxamide]
